ChEMBL document CHEMBL1201862, “PubChem BioAssay data set” (2004)
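Cells were grown in 96-well plates and exposed to each compound for 48 hours at five concentrations; endpoints were interpolated linearly between bracketing concentrations, or set to the highest concentration if not reached. Abbreviation: GI50, concentration required for 50% inhibition of growth.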 Active and inactive are the calls of the source. No stated cut-off is given here; in the data, active = GI50 up to about 1.1 µM and inactive = higher.

Tests used:
Assay in all cases: DTP human tumour cell line panel, 48 h
[1] = tested on: SNB-78
[2] = tested on: XF498
[3] = tested on: DMS-114
[4] = tested on: LXFL 529
[5] = tested on: SR
[6] = tested on: MCF7
[7] = tested on: Hs-578T
[8] = tested on: RXF 631
[9] = tested on: HOP-18

## O=[N+]([O-])c1ccc(C2=Nc3ccccc3SC(c3ccccc3)C2)cc1 (centres undefined)
[1]
  GI50: 23.6 µM (inactive)
[2]
  GI50: 17.5 µM (inactive)
[3]
  GI50: 18.2 µM (inactive)
[4]
  GI50: 17.8 µM (inactive)
[5]
  GI50: 18.2 µM (inactive)

## CN1C2CCC1CC(C)(O)C2 (centres undefined)
[6]
  GI50: > 100 µM (inactive)
[5]
  GI50: > 100 µM (inactive)

## COc1ccc(/C=C2\CC3C4CC=C5C[C@@H](O)CC[C@]5(C)C4CC[C@]3(C)\C2=N\O)cc1OC (some centres undefined)
[6]
  GI50: 4.24 µM (inactive)
[7]
  GI50: 8.77 µM (inactive)

## COC(=O)c1ccc(/C=C2\N=C(C)OC2=O)cc1
[8]
  GI50: > 100 µM (inactive)
[2]
  GI50: > 100 µM (inactive)
[3]
  GI50: > 100 µM (inactive)
[4]
  GI50: > 100 µM (inactive)
[9]
  GI50: > 100 µM (inactive)

## CC(C)=C1C2CC3(C)CCC2(C)CCC13.CC1=CCC2C3(C)CCC2(C(C)C)C1C3 (centres undefined)
[6]
  GI50: 19 µM (inactive)
[7]
  GI50: 18.4 µM (inactive)

## O=CCCn1[nH]c(=O)ccc1=O
[1]
  GI50: > 100 µM (inactive)
[3]
  GI50: > 100 µM (inactive)
[5]
  GI50: > 100 µM (inactive)

## COC(=O)C1(Cc2ccccc2)Cc2cc3c(cc2C1)CCC3
[6]
  GI50: 15.5 µM (inactive)
[7]
  GI50: 34.4 µM (inactive)
[5]
  GI50: 13 µM (inactive)

## CNc1ccccc1-c1nc2ccccc2c(=O)o1
[1]
  GI50: 55.3 µM (inactive)
[8]
  GI50: > 100 µM (inactive)
[2]
  GI50: 31 µM (inactive)
[3]
  GI50: > 100 µM (inactive)
[4]
  GI50: > 100 µM (inactive)
[9]
  GI50: > 100 µM (inactive)
[5]
  GI50: > 100 µM (inactive)

## CC(=O)/N=C1/N(/C=C2\C(=O)Oc3ccccc3C2=O)C(=O)/C(=C/c2ccc(OC(C)=O)cc2)N1C
[6]
  GI50: > 100 µM (inactive)
[7]
  GI50: > 100 µM (inactive)
[5]
  GI50: > 100 µM (inactive)

## C/C(=N\O)C1CC(CC(=O)O)C1(C)C (centres undefined)
[6]
  GI50: > 100 µM (inactive)
[7]
  GI50: > 100 µM (inactive)
[5]
  GI50: > 100 µM (inactive)

## CCN1C(=O)C(=Cc2ccc(-c3ccccc3)cc2)C(=O)N(CC)C1=S
[6]
  GI50: > 100 µM (inactive)
[7]
  GI50: > 100 µM (inactive)

## CCOCCOc1ccc(OCCOCC)cc1
[1]
  GI50: > 42.7 µM (inactive)
[2]
  GI50: 16.4 µM (inactive)
[3]
  GI50: 4.51 µM (inactive)
[6]
  GI50: 14 µM (inactive)
[9]
  GI50: 10.7 µM (inactive)

## COc1cccc(NC(=O)CC(=O)n2nc(-c3ccccc3)c(/N=N/c3ccc(Cl)cc3)c2-c2ccccc2)c1
[6]
  GI50: 7.57 µM (inactive)
[7]
  GI50: 26.2 µM (inactive)
[5]
  GI50: 11 µM (inactive)

## O=C(Nc1ccccc1Br)c1cccc([N+](=O)[O-])c1O
[1]
  GI50: 5.09 µM (inactive)
[8]
  GI50: 17.7 µM (inactive)
[3]
  GI50: 3.18 µM (inactive)
[4]
  GI50: 3.15 µM (inactive)
[9]
  GI50: 1.66 µM (inactive)
[5]
  GI50: 4.51 µM (inactive)

## CSCC(CO)NC(=O)/C=C/c1c(C)[nH]c(=O)[nH]c1=O (centres undefined)
[1]
  GI50: > 853 µM (inactive)
[2]
  GI50: 311 µM (inactive)
[3]
  GI50: 164 µM (inactive)
[6]
  GI50: 40.3 µM (inactive)
[9]
  GI50: > 875 µM (inactive)

## CN(C)C(=O)C1CCC(=C2C(=O)OC(C)(C)OC2=O)N1C (centres undefined)
[1]
  GI50: > 100 µM (inactive)
[2]
  GI50: > 100 µM (inactive)
[3]
  GI50: > 100 µM (inactive)
[4]
  GI50: > 100 µM (inactive)
[9]
  GI50: > 100 µM (inactive)

## COC(=O)[C@@H](NC(=O)[C@H](N)Cc1ccc(N(CCCl)CCCl)cc1)C(C)C
[6]
  GI50: 12.5 µM (inactive)
[7]
  GI50: 26.2 µM (inactive)
[5]
  GI50: 0.53 µM (active)

## CN(N)c1nc(N)c(C#N)c(C#N)c1C#N
[6]
  GI50: > 10 µM (inactive)
[7]
  GI50: > 10 µM (inactive)
[5]
  GI50: > 10 µM (inactive)

## CC1OC(O)CC(OC(=O)c2ccccc2)C1OC(=O)c1ccccc1 (centres undefined)
[2]
  GI50: 19.9 µM (inactive)
[4]
  GI50: 16.2 µM (inactive)
[9]
  GI50: 26.3 µM (inactive)
[5]
  GI50: 13.2 µM (inactive)

## CC1(C)CC[C@]2(C)CC[C@]3(C)C(=CC[C@@H]4[C@@]5(C)CCC(=O)C(C)(C)[C@@H]5[C@H](O)C[C@]43C)[C@@H]2C1
[6]
  GI50: 19 µM (inactive)
[7]
  GI50: 19.5 µM (inactive)

## O=C(O)C(Cc1ccc(O)cn1)NC(=O)C(F)(F)F (centres undefined)
[6]
  GI50: > 100 µM (inactive)
[7]
  GI50: > 100 µM (inactive)
[5]
  GI50: > 100 µM (inactive)

## Nc1cc(S(=O)(=O)O)cc2cc(S(=O)(=O)O)c(/N=N/c3ccc(-c4ccc(/N=N/c5c(S(=O)(=O)O)cc6cc(S(=O)(=O)O)cc(N)c6c5O)cc4)cc3)c(O)c12
[1]
  GI50: > 100 µM (inactive)
[2]
  GI50: > 100 µM (inactive)
[3]
  GI50: > 100 µM (inactive)
[6]
  GI50: > 100 µM (inactive)
[9]
  GI50: > 100 µM (inactive)

## CC1(C)[C@@H]2C[C@H]1C(Cc1ccccc1C[C@H]1c3cc(-c4ccccn4)ncc3[C@H]3C[C@@H]1C3(C)C)c1cc(-c3ccccn3)ncc12 (some centres undefined)
[6]
  GI50: 0.362 µM (active)
[5]
  GI50: 0.153 µM (active)

## CCc1ccc(Nc2cc(=O)[nH]c(=S)n2C)cc1
[1]
  GI50: > 100 µM (inactive)
[2]
  GI50: > 100 µM (inactive)
[3]
  GI50: > 100 µM (inactive)
[4]
  GI50: > 100 µM (inactive)
[9]
  GI50: > 100 µM (inactive)
[5]
  GI50: > 100 µM (inactive)

## N[C@@H](CSCSC[C@H](N)C(=O)O)C(=O)O
[1]
  GI50: 126 µM (inactive)
[2]
  GI50: > 225 µM (inactive)
[3]
  GI50: > 225 µM (inactive)
[6]
  GI50: > 225 µM (inactive)
[9]
  GI50: > 225 µM (inactive)
